In paper PMC11665553, “12-Lipoxygenase inhibition delays onset of autoimmune diabetes in human gene replacement mice” (JCI Insight, 2024):
“And” between values parts separate entries of the source, which are not always exact repeats. Identical values can stand only once.

How the values were obtained:
C57BL/6J mice = assay: Multiple low-dose STZ-induced diabetes in WT C57BL/6J mice (random-fed blood glucose, GTT); type: in vivo, mouse; design: Random-fed blood glucose (Fig 1E) / GTT blood glucose (Fig 1F): unit not given here; settings: for Random-fed blood glucose (Fig 1E): 30 mg/kg i.p. + STZ; for Random-fed blood glucose (Fig 1E) / GTT blood glucose (Fig 1F): listed as ML355; for GTT blood glucose (Fig 1F): Control (C57BL/6J)
[1] = test system: BMDMs from NOD.hALOX12 mice; assay: RNA sequencing of M0 and M1-like polarized BMDMs; type: cell-based, mouse
Excerpt: BMDMs were unpolarized (M0) or polarized to an M1-like state (with lipopolysaccharide and IFN-γ) to mimic the inflammatory state that might be observed during T1D pathogenesis.
These common genes mapped to pathways related to cytokine-mediated signaling, T cell activation, and antigen processing and presentation (Supplemental Figure 3B). […] The 507 genes altered with vehicle treatment mapped to GO pathways related to the M1 polarization phenotype (myeloid cell differentiation, immune response, response to cytokines) and pathways related to oxidative stress (cell redox homeostasis, response to hydrogen peroxides) (Figure 5E). These pathways were not identified in the genes that were differentially expressed during VLX-1005 treatment.
BMDMs were isolated from 8-week-old NOD.hALOX12 mice as described previously ([2]). The isolated BMDMs were cultured for 7 days in complete medium (RPMI 1640 containing 10% FBS, 10 mM HEPES, and 100 U/mL penicillin/streptomycin) supplemented with 10 ng/mL M-CSF. […] After 1-hour pretreatment, the BMDMs were further stimulated with 10 ng/mL LPS and 25 ng/mL IFN-γ for 18 hours for M1-like polarization. RNA was isolated and used for sequencing.
RNA extraction was performed using RLT Buffer, according to the manufacturer’s instructions (Qiagen). Samples were submitted for library generation and sequencing by the University of Chicago sequencing core using a NovaSeq 6000 (Illumina). Data were analyzed using Galaxy (https://usegalaxy.org/). Reads were aligned to the Mus musculus genome build mm10 using HISAT2 (https://daehwankimlab.github.io/hisat2/). Individual sample reads were quantified using HTseq-count and normalized using DESeq2 (https://bioconductor.org/packages/release/bioc/html/DESeq2.html). DEseq2 was also used to calculate FCs and P values and to perform optional covariate correction. GO was used for pathway analysis.

[2] = sheet Fig 5G, 4 replicates, listed as VLX

In the case of `COc1cccc(CNc2ccc(S(=O)(=O)Nc3nc4ccccc4s3)cc2)c1O` [VLX-1005], the “Random-fed blood glucose (Fig 1E)” value (C57BL/6J mice; C57BL/6J, day 0, individual mice) is reported as 180 and 167 and 192 and 187, the “Random-fed blood glucose (Fig 1E)” value (C57BL/6J mice; C57BL/6J, day 5, individual mice) is reported as 172 and 214 and 232 and 221 and the “Random-fed blood glucose (Fig 1E)” value (C57BL/6J mice; C57BL/6J, day 10, individual mice) is reported as 253 and 280 and 275 and 278. The “Random-fed blood glucose (Fig 1E)” value (C57BL/6J mice; C57BL/6J, day 15, individual mice) was 347 and 298 and 284 and 335, the “Random-fed blood glucose (Fig 1E)” value (C57BL/6J mice; C57BL/6J, day 22, individual mice) was 347 and 428 and 437 and 367 and the “Random-fed blood glucose (Fig 1E)” value (C57BL/6J mice; C57BL/6J, day 27, individual mice) was 487 and 478 and 512 and 486. For the same compound, the “Random-fed blood glucose (Fig 1E)” value (C57BL/6J mice; C57BL/6J, day -5, individual mice) was 190 and 213 and 199 and 201, the “GTT AUC (Fig 1G)” value (C57BL/6J mice; C57BL/6J, 30 mg/kg i.p., day 4 after STZ, individual mice) was 44930 and 36610 and 49530 and 43880 and the “GTT blood glucose (Fig 1F)” value (C57BL/6J mice; 30 mg/kg i.p., day 4 after STZ, 0 min after glucose, individual mice) was 164 and 184 and 175 and 154. For the same compound, the “GTT blood glucose (Fig 1F)” value (C57BL/6J mice; 30 mg/kg i.p., day 4 after STZ, 10 min after glucose, individual mice) was 268 and 395 and 398 and 425, the “GTT blood glucose (Fig 1F)” value (C57BL/6J mice; 30 mg/kg i.p., day 4 after STZ, 20 min after glucose, individual mice) was 532 and 602 (2×) and 658 and the “GTT blood glucose (Fig 1F)” value (C57BL/6J mice; 30 mg/kg i.p., day 4 after STZ, 30 min after glucose, individual mice) was 682 and 563 and 602 and 586. For the same compound, the “GTT blood glucose (Fig 1F)” value (C57BL/6J mice; 30 mg/kg i.p., day 4 after STZ, 60 min after glucose, individual mice) was 547 and 425 and 594 and 493, the “GTT blood glucose (Fig 1F)” value (C57BL/6J mice; 30 mg/kg i.p., day 4 after STZ, 90 min after glucose, individual mice) was 459 and 369 and 530 and 452 and the “GTT blood glucose (Fig 1F)” value (C57BL/6J mice; 30 mg/kg i.p., day 4 after STZ, 120 min after glucose, individual mice) was 366 and 256 and 369 and 398. The “Glycemic outcome after STZ” value (C57BL/6J mice; male WT C57BL/6J mice, 30 mg/kg i.p. daily peri-STZ) was “became overtly hyperglycemic”, the “Magnitude of changes of IFN pathway genes vs vehicle in M1-like BMDMs” value ([1]; 10 μM, P < 0.05 by t test) was “augmented significantly” and the “Adar expression (heat map value)” value [1, 2] was 1.762 and 1.682 and 1.654 and 1.2. The “Arrdc4 expression (heat map value)” value [1, 2] was 1.769 and 1.684 and 1.6721 and 1.333, the “Ddx3x expression (heat map value)” value [1, 2] was 0.9319 and 0.8926 and 0.8886 and 0.8518 and the “Dhx58 expression (heat map value)” value [1, 2] was 2.321 and 1.936 and 1.912 and 1.006. The “Gigyf2 expression (heat map value)” value [1, 2] was 0.9359 and 0.7566 and 0.751 and 0.4484, the “Kat5 expression (heat map value)” value [1, 2] was 0.9038 and 0.7157 and 0.4242 (2×) and the “Lrrfip2 expression (heat map value)” value [1, 2] was 1.898 and 1.808 and 1.658 and 1.413. The “Mark4 expression (heat map value)” value [1, 2] was 1.966 and 1.936 and 1.657 and 1.006, the “Mmp12 expression (heat map value)” value [1, 2] was 0.8105 and 0.4921 (3×) and the “Ninj1 expression (heat map value)” value [1, 2] was 1.769 and 1.701 and 1.685 and 1.401. The “Nlrp3 expression (heat map value)” value [1, 2] was 2.077 and 1.964 and 1.718 and 1.337, the “Nono expression (heat map value)” value [1, 2] was 1.2 and 1.151 and 1.126 and 1.119 and the “Oas1e expression (heat map value)” value [1, 2] was 2.321 and 1.949 and 1.675 and 1.657. The “Pou2f2 expression (heat map value)” value [1, 2] was 1.6038 and 1.537 and 1.347 and 1.324, the “Riok3 expression (heat map value)” value [1, 2] was 1.411 and 1.279 and 1.172 and 1.109 and the “Srebf1 expression (heat map value)” value [1, 2] was 0.9499 and 0.826 and 0.6628 and 0.3958.
